Test results reported in patent US20230263783A1, “CANCER TREATMENT BY COMBINED INHIBITION OF POLO-LIKE KINASE AND MICROTUBULE POLYMERIZATION” (Massachusetts Institute of Technology, priority 2022, published 2023).
Like-named read-outs stand apart in the source and are kept apart here.

How the values were obtained:
[1] = system: C4-2 castrate resistant prostate cancer (CRPC) cells; experiment: Relative viability after drug dose matrix (CellTiter-Glo, Bliss Independence) in C4-2 cells; type: cell-based; conditions: for effect of the combination of TH588 with a Plk1 inhibitor: each Plk1 inhibitor in combination with TH588, relative viability
Procedure: All cell lines were cultured in a humidified incubator at 37° C. and with 5% CO2, were maintained sub-confluent and used for no more than 20 passages. Media was supplemented with 10% fetal bovine serum (FBS), contained 2 mM glutamine and lacked antibiotics, unless otherwise noted. A549, BT-20, CCD-1112sk, CCD-18co, CFPAC1, HCT 116, HeLa, HT-29, HT55, MCF7, MDA-MB-157, MDA-MB-231, MDA-MB-415, MDA-MB-436, MDA-MB-453, MDA-MB-468, SW48, T98G, U-2 OS, U-87 MG, CAOV3, COV362, and JIMT1 cells were grown in DMEM; 22RV1, AU565, C4-2, CAL33, COL0205,HCC38, HCT-15, KYSE150, LNCaP, LOVO, NCI-H1299, PC-3, ZR-75-1, HCC1419, HCC1569, HCC1954, ZR7530, OVCAR-4, OVCAR8 cells were grown in RPMI 1640; HT1197, HT1376, J82, UMUC3 cells were grown in MEM; OV90, TOV122D, TOV21G cells were grown in 1:1 MCDB105:Medial99 15% FBS; 59M, OAW28, OAW42 cells were grown in Advanced DMEM 0.023 IU/ml insulin; ES2, SKOV3 cells were grown in McCoy's 5A; JHOS2, JHOS4 cells were grown in 1:1 DMEM:HamF12; HUVEC cells were grown in EBM with EGM™-2 BULLETKIT™
(§1) For dose response experiments and experiments that examine synergy as a measure of change in relative viability, cells were grown in 384-well plates in triplicate. The following day the cells were subjected to a drug dose matrix that consisted of increasing concentrations of a Plk inhibitor, increasing concentrations of a microtubule polymerization inhibitor, and all pairwise combinations. Drugs were dissolved in DMSO and diluted in the appropriate cell growth media while maintaining a constant final concentration of DMSO. After five days, relative viability was assessed using […]-GLO™ (Promega) Luminescent Cell Viability Assay according to the manufacturer's recommendations. Luminescence was measured using an […]™ M200 Pro plate reader (Tecan Group Ltd.). […] The dose response plots (for example FIG. 1A) show sensitivity to increasing concentrations of a microtubule polymerization inhibitor in the absence or presence of a constant amount of Plk inhibitor. Bars represent the standard error of the mean. The concentration of Plk inhibitor chosen to presented was based on a ˜20-30% reduction of viability when that drug was used at that dose in isolation. The entire amount of greater-than-additive response observed in the dose matrix is the integrated volume between the observed and expected surfaces generated by the response matrix and is also known as Bliss Volume. Bliss Volume synergy metrics are presented in FIG. 3 as the fractional change in volume between the expected and observed response surfaces.

[2] = system: HCT 116 xenografts; conditions: cited from earlier work
[3] = system: A549; conditions: twice-weekly; cited from earlier work
[4] = cited from earlier work; for maximum tolerated dose: elderly patients with relapsed/refractory AML
[5] = system: BxPC-3; conditions: twice-weekly; cited from earlier work
[6] = system: mouse xenograft models; conditions: 10 mg/kg and 20 mg/kg on days 1 and 28; cited from earlier work
[7] = target: several tyrosine kinases and cyclin-dependent kinase 1; conditions: read-out: IC50, tyrosine kinases and Cdk1; cited from earlier work
[8] = system: Bel-7402, MCF-7, and MIA-PaCa cells; conditions: 250 mg/kg; cited from earlier work
[9] = system: BT20 cells; conditions: 200 mg/kg; cited from earlier work
[10] = target: Plk1 (Homo sapiens, UniProt P53350); conditions: cited from earlier work
[11] = system: HT-29 human colorectal tumors; conditions: cited from earlier work
[12] = system: C4-2 CRPC cells; experiment: Flow cytometry for apoptotic cells (cleaved caspase-3); type: cell-based; conditions: TH588 with Plk1 inhibitor BI2536, 0 to 48 hours, FIG. 1C
Procedure: (§2) C4-2 CRPC cells were plated in 6-well plates at a density of 300,000 cells per well and a total volume of 3 mls. The next day drugs were diluted in the appropriate growth media while maintaining a constant concentration of DMSO and added to the wells. After the indicated amount of time, cells were harvested by trypsinization. The media, trypsin and PBS wash were collected together to avoid loss of loosely attached or detached cells. Cells were fixed in 4% formaldehyde in PBS for 15 minutes, washed with PBS containing 1% bovine serum albumin (PBS-BSA), and then stored in methanol at −20° C. overnight. Cells were then washed twice in PBS-BSA 0.1% Tween-20, incubated with primary antibodies overnight at 4° C., washed with PBS-BSA 0.1% Tween-20 and incubated for 1 hour with fluorescent-dye conjugated secondary antibodies (diluted 1:200, Alexa Fluor, Molecular Probes) at room temperature for 1 hour. Primary antibodies included anti-phospho-serine 10 histone H3 (clone 3H10, Millipore) and anti-active caspase-3 (clone C92-605, BD Pharmingen). The fixed cells were then washed with PBS-BSA 0.1% Tween-20 and resuspended in PBS containing 1 μg/ml 4,6-diamidino-2-phenylindole (DAPI, Molecular Probes) to stain DNA and analyzed using a BD™ LSRII flow cytometer (Becton Dickinson) and the FLOWJO™ software package. Shown is the average of three replicates±standard error of the mean.

[13] = system: cancer cell lines of various origin; experiment: Combination synergy (Bliss Volume) in cancer cell lines of various origin; type: cell-based; conditions: TH588 with a Plk1 inhibitor; approximately thirty cell lines, in the majority of these; FIG. 3
Procedure: (§3) All cell lines were cultured in a humidified incubator at 37° C. and with 5% CO2, were maintained sub-confluent and used for no more than 20 passages. Media was supplemented with 10% fetal bovine serum (FBS), contained 2 mM glutamine and lacked antibiotics, unless otherwise noted. […]
(§4) For dose response experiments and experiments that examine synergy as a measure of change in relative viability, cells were grown in 384-well plates in triplicate. […] After five days, relative viability was assessed using […]-GLO™ (Promega) Luminescent Cell Viability Assay according to the manufacturer's recommendations. Luminescence was measured using an […]™ M200 Pro plate reader (Tecan Group Ltd.). […]

[14] = system: C4-2 CRPC cells; experiment: Flow cytometry for mitotic cells (phospho-Ser10 Histone H3); type: cell-based; conditions: TH588 with Plk1 inhibitor BI2536, 0 to 48 hours, FIG. 1B
Procedure: as §2

[15] = system: C4-2 CRPC xenograft tumors; experiment: Microwell tumor-implantable device, apoptotic index in xenograft tumors; type: in vivo, mice; conditions: half-dose BI2536 with half-dose TH588 versus monotherapy wells, 24 hours after implantation, p<0.01, FIG. 2B
Procedure: C4-2 CRPC xenograft tumors were grown in four to six week old castrated male NCR nude mice. Five million C4-2 cells in 200 μl serum free media, mixed 1:1 with growth factor reduced […]® (Invitrogen) were injected into the hind flank subcutaneously using a 23 gauge needle. Tumors took four to eight weeks to grow. Microdose drug delivery devices were manufactured, implanted, and analyzed as described by Jonas, O., et al. Science Translational Medicine, 7(284): 284ra57 (2015). […] Tumors were excised 24 hours after device implantation, fixed in 10% formalin for 24 hours, and embedded in paraffin. Sections were stained with cleaved caspase-3 antibody (Cell Signaling Technologies, 9664) followed by detection with horseradish peroxidase conjugated secondary antibody and diaminobenzidine with hematoxylin used as a counterstain. Images were viewed using an EVOS® Cell Imaging System (Invitrogen) microscope, and scored using ImageJ in a blinded manner. Apoptotic index (Al) was calculated as the percentage of cells that were cleaved caspase-3-positive within […] of the reservoir-tissue interface.

[16] = system: tubulin; experiment: Microtubule polymerization in vitro; type: biochemical
[17] = system: non-cancer cells; experiment: Combination synergy (Bliss Volume) in non-cancer cell lines; type: cell-based; conditions: TH588 with a Plk1 inhibitor; FIG. 3
Procedure: as §3, §4

[18] = system: tumor cells; experiment: Tumor cell killing by other microtubule polymerization inhibitors with Plk1 inhibitors; type: cell-based; conditions: in combination with Plk1 inhibitors
Procedure: as §1, with “Bliss Volume synergy metrics are presented in FIG. 3 as the fractional change in volume between the expected and observed response surfaces.” left out

[19] = cited from earlier work
[20] = system: Cdc25C-T96 phosphorylation; conditions: direct readout of PLK1 inhibition; cited from earlier work
[21] = system: cell mitosis; conditions: read-out: EC50, inhibition of cell mitosis; cited from earlier work

Chain of Plk1 (P53350 whole entry): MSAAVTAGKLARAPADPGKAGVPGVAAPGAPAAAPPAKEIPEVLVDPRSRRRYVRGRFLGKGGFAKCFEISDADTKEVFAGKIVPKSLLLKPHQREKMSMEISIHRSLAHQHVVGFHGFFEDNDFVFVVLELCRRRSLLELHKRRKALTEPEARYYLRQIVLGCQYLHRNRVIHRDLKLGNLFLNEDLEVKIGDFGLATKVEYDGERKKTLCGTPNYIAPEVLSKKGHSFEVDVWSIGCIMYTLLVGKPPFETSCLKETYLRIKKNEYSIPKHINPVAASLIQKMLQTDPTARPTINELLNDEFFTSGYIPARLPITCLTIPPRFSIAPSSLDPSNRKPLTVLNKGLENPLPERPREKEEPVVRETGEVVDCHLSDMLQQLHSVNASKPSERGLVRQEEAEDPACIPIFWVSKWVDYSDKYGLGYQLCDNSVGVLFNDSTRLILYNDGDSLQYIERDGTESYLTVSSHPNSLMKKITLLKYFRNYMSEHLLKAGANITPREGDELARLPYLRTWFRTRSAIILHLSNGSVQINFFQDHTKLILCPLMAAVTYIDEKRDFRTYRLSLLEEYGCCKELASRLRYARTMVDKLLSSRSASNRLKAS

## CC[C@@H]1C(=O)N(C)c2cnc(Nc3ccc(C(=O)NC4CCN(C)CC4)cc3OC)nc2N1C1CCCC1 [BI2536]
[1]
  effect of the combination of TH588 with a Plk1 inhibitor: more than additive
[2]; 50 mg/kg once per week
  T/C, HCT 116 xenografts: 15%
[2]; 50 mg/kg twice per week
  T/C, HCT 116 xenografts: 0.3%
[3]
  T/C, A549 model: 14%
[4]; Frost et al.
  MTD suggested by other studies: 50 to 70 mg
[4]; day 1 schedule
  maximum tolerated dose: 350 mg
[4]; days 1+8 schedule
  maximum tolerated dose: 200 mg
[4]; intravenous, NSCLC, day 1 every 3 weeks
  maximum tolerated dose (MTD) in combination with pemetrexed: 300 mg
[4]; with 500 mg/m^2 pemetrexed, NSCLC, day 1 every 3 weeks, two DLT
  dose at which dose-limiting toxicities occurred: 325 mg
[5]
  T/C, BxPC-3 model: 5%

## C[C@@H](Oc1cc(-n2cnc3ccc(CN4CCN(C)CC4)cc32)sc1C(N)=O)c1ccccc1C(F)(F)F [GSK461364]
[1]
  effect of the combination of TH588 with a Plk1 inhibitor: more than additive
[4]; intravenously, schedule A (days 1, 8, and 15 of 28-day cycle)
  final recommended phase II dose: 225 mg
[4]; phase I, advanced solid tumors
  incidence of venous thrombotic emboli (VTE): 20%

## COc1ccc(S(=O)(=O)Nc2ccccc2/C=C/c2cc[n+]([O-])cc2)cc1 [HMN-176]
[6]
  antitumor activity in mouse xenograft models: potent antitumor activity

## COc1ccc(S(=O)(=O)N(C(C)=O)c2ccccc2/C=C/c2cc[n+]([O-])cc2)cc1 [HMN-214]
[4]; 5 consecutive days every 4 weeks, based on previous patient treatment load
  MTD: 18 to 30 mg/m^2
[4]; 5 consecutive days every 4 weeks
  doses at which DLTs were observed: 24 to 48 mg/m^2
[4]; continuous 21-day dosing every 28 days
  maximum tolerated dose and recommended dose: 8.0 mg/m^2/d
[4]; continuous 21-day dosing every 28 days, myalgia/bone pain syndrome and hyperglycemia
  dose with dose-limiting toxicities: 9.9 mg/m^2/d

## COc1cc(OC)c(/C=C/S(=O)(=O)Cc2ccc(OC)c(NCC(=O)[O-])c2)c(OC)c1.[Na+] [ON 01910]
[4]; i.v., days 1, 4, 8, 11, 15, and 18 in 28-day cycles, advanced solid tumors
  MTD: 3,120 mg
[7]
  IC50: 18 to 260 nM
[8]
  tumor growth in xenograft models: inhibited tumor growth
[9]
  tumor growth in xenograft model: inhibition of tumor growth

## COc1cc(C(=O)N[C@H]2CC[C@H](N3CCN(C)CC3)CC2)ccc1Nc1ncc2c(n1)N(C1CCCC1)CC1(CC1)C(=O)N2C [Plogosertib]
[10]
  IC50: 3 nM

## COc1cc(C(=O)NC2CCN(C)CC2)ccc1Nc1ncc2c(n1)N(C1CCCC1)CC(F)(F)C(=O)N2C [RO3280]
[11]; dosed more frequently
  antitumor activity when dosed more frequently: complete tumor regression
[11]; once weekly at 40 mg/kg
  tumor growth inhibition: 72%

## Nc1nc(NC2CC2)cc(-c2cccc(Cl)c2Cl)n1 [TH588]
[12]
  apoptotic cancer cell killing with the combination: greater than additive
[13]
  effect of tumor cell killing using the combination treatment: more than additive
[1]; C4-2 CRPC cells, TH588 with BI2536, five days, Bliss Independence model, FIG. 1A
  effect of killing cancer cells by the combination of Plk1 inhibitors with TH588, versus each alone: more than additive
[14]
  mitotic arrest with the combination: greater than additive
[15]
  effect on tumor cell killing in vivo (cleaved caspase-3 positive cells): more-than-additive
[16]
  microtubule polymerization in vitro: inhibits microtubule polymerization
[17]
  effect of killing by the drug combination in non-cancer cells: not more than additive

## COC(=O)Nc1nc2ccc(C(=O)c3cccs3)cc2[nH]1 [nocodazole]
[18]
  effect when used with Plk1 inhibitors in killing tumor cells: more-than-additive effect

## CN1CCN(c2ccc(OC(F)(F)F)c(Nc3ncc4c(n3)-c3c(c(C(N)=O)nn3CCO)CC4)c2)CC1 [onvansertib]
[1]
  effect of the combination of TH588 with a Plk1 inhibitor: more than additive

## CC[C@]1(O)C[C@@H]2C[N@@](CCc3c([nH]c4ccccc34)[C@@](C(=O)OC)(c3cc4c(cc3OC)N(C=O)[C@H]3[C@@](O)(C(=O)OC)[C@H](OC(C)=O)[C@]5(CC)C=CCN6CC[C@]43[C@@H]65)C2)C1 [vincristine]
[18]
  effect when used with Plk1 inhibitors in killing tumor cells: more-than-additive effect

## MLN0905
[19]; QD (daily) schedule
  maximum tolerated dose: 6.25 mg/kg
[19]; QDx3/wk (3-days on/4-days off) schedule
  maximum tolerated dose: 14.5 mg/kg
[20]
  EC50: 29 nM
[21]
  EC50: 9 nM
